Assay [1] has as its target human A2a receptor (Homo sapiens (Human), UniProt P29274). As to the kind of experiment: A2a competition binding assay using Scintillation Proximity technology. The method in brief:
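Membranes (0.25 or 1 μg) from HEK293 expressing the receptor were pretreated with adenosine deaminase and bound to WGA-coated yttrium silicate SPA beads. They were incubated 1 h at room temperature with compound at 3000–0.15 nM and 0.5 nM tritiated pyrazolotriazolopyrimidine ligand in Ca/Mg-free DPBS with 10 mM MgCl2. Ki was derived from […] by Cheng-Prusoff.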
In general terms: SPA uses beads or plates that emit light when radiolabelled molecules are held near them.

For assay [2], the target named is human A1 receptor (Homo sapiens (Human), UniProt P30542). As to the kind of experiment: A1 competition binding assay using Scintillation Proximity technology; selectivity = A1 binding Ki / A2a binding Ki. The following applies: A1 binding Ki divided by A2a binding Ki. Put shortly:
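SPA competition using 5 ug membranes from CHO-K1 cells expressing human A1, pretreated with adenosine deaminase. Radioligand was 0.7 nM [3H]DPCPX (final), with compound at 3000–0.15 nM in DPBS + 10 mM MgCl2. Incubation was 1 h at room temperature. Non-specific binding was defined with 1 uM DPCPX, and Ki was derived as for A2a.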

Setting [3] is: * assay run with 1 μg of membranes versus 0.25 μg, HEK293 cells expressing the human A2a receptor.
Where [4] appears, read: 0.25 μg of membranes from HEK293 cells expressing the human A2a receptor.

human A1 receptor, sequence (P30542 whole entry): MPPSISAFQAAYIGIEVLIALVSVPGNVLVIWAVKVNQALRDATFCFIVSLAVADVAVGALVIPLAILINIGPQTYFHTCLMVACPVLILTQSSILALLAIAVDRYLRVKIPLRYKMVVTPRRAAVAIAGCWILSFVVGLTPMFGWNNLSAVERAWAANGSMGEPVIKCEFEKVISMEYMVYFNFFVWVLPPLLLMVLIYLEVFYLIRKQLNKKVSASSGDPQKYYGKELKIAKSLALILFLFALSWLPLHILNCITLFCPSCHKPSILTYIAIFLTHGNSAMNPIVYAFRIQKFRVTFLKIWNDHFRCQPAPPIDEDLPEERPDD
human A2a receptor, sequence (P29274 whole entry): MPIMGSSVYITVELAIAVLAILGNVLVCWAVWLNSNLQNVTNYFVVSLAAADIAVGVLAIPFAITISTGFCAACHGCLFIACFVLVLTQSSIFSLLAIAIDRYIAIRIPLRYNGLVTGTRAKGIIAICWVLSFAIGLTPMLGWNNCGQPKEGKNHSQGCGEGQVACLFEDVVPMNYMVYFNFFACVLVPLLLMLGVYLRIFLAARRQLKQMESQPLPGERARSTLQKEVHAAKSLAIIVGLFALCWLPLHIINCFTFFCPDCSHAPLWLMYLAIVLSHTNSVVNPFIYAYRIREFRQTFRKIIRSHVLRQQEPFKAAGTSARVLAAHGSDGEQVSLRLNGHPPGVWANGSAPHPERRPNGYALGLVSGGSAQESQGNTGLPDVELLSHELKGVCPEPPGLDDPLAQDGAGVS

In turn, `COC(=O)c1ccccc1CNC(=O)c1nc(N)nc2c(F)cccc12` [Example 74, methyl 2-[[(2-amino-8-fluoro-quinazoline-4-carbonyl)amino]methyl]benzoate] registered a Ki in assay [1] (setting [3]) of 2.5 nM. Further, in assay [2], the “A2a selectivity (A2a A1 binding selectivity)” value (shortened to “A2a selectivity”) is given as 18.

In turn, `COc1ccc(C(C)(C)O)nc1CNC(=O)c1nc(N)nc2c(OC)cccc12` [Example 1, 2-amino-N-[[6-(1-hydroxy-1-methyl-ethyl)-3-methoxy-2-pyridyl]methyl]-8-methoxy-quinazoline-4-carboxamide] gave a Ki in assay [1] (setting [4]) of 10 nM. The “A2a selectivity” value in assay [2] is listed as 145.

As for `COc1cccc2c(C(=O)NCc3ncccn3)nc(N)nc12` [Example 38, 2-amino-8-methoxy-N-(pyrimidin-2-ylmethyl)quinazoline-4-carboxamide], the Ki in assay [1] (setting [4]) is 43 nM. For the same compound, the “A2a selectivity” value in assay [2] is reported as 94.

For the compound `COc1cccc2c(C(=O)NCc3cccc(C(C)(O)C(F)(F)F)n3)nc(N)nc12` (centres unmarked) [Example 3, 2-amino-8-methoxy-N-[[6-(2,2,2-trifluoro-1-hydroxy-1-methyl-ethyl)-2-pyridyl]methyl]quinazoline-4-carboxamide], the affinity in assay [1] (setting [4]), expressed as Ki, was 0.5 nM. Besides, the “A2a selectivity” value in assay [2] turned out to be 600.

In assay [1] (setting [4]), `[2H]C([2H])(NC(=O)c1nc(N)nc2c(OC)cccc12)c1cccc(C([2H])([2H])c2cncc(OCCOC)c2)n1` [Example 107, 2-amino-N-[dideuterio-[6-[dideuterio-[5-(2-methoxyethoxy)-3-pyridyl]methyl]-2-pyridyl]methyl]-8-methoxy-quinazoline-4-carboxamide] returned a Ki of 2 nM. In addition, the “A2a selectivity” value in assay [2] was found to be 95.

In assay [1] (setting [4]), `COc1cccc2c(C(=O)NCc3nc(C(C)(C)O)ccc3C)nc(N)nc12` [Example 2, 2-amino-N-[[6-(1-hydroxy-1-methyl-ethyl)-3-methyl-2-pyridyl]methyl]-8-methoxy-quinazoline-4-carboxamide] returned a Ki of 0.6 nM. The “A2a selectivity” value in assay [2] is listed as 193.

`COc1cccc2c(C(=O)NCc3cccc(COc4ccccc4F)n3)nc(N)nc12` [Example 44, 2-amino-N-[[6-[(2-fluorophenoxy)methyl]-2-pyridyl]methyl]-8-methoxy-quinazoline-4-carboxamide] registered a Ki in assay [1] (setting [4]) of 0.2 nM. For the same compound, the “A2a selectivity” value in assay [2] is recorded as 531.

In the case of `Nc1nc(C(=O)NCc2cccc(-c3cnco3)n2)c2cccc(F)c2n1` [Example 70, 2-amino-8-fluoro-N-[(6-oxazol-5-yl-2-pyridyl)methyl]quinazoline-4-carboxamide], the affinity in assay [1] (setting [4]) corresponds to a Ki of 4.5 nM. Also, the “A2a selectivity” value in assay [2] was 19.

Compound `COc1ccc(CNC(=O)c2nc(N)nc3c(OC)cccc23)nc1` [Example 22, 2-amino-8-methoxy-N-[(5-methoxy-2-pyridyl)methyl]quinazoline-4-carboxamide] gave a Ki in assay [1] (setting [4]) of 7.8 nM. The “A2a selectivity” value in assay [2] is 52.

The compound `COc1cccc2c(C(=O)NCc3cccc(F)n3)nc(N)nc12` [Example 27, 2-amino-N-[(6-fluoro-2-pyridyl)methyl]-8-methoxy-quinazoline-4-carboxamide] gave a Ki in assay [1] (setting [4]) of 1.5 nM. The “A2a selectivity” value in assay [2] is 148.

The compound `COc1cccc2c(C(=O)NCc3cccc(C4CCC4)n3)nc(N)nc12` [Example 6, 2-amino-N-[(6-cyclobutyl-2-pyridyl)methyl]-8-methoxy-quinazoline-4-carboxamide] displayed a Ki in assay [1] (setting [4]) of 0.2 nM. For the same compound, the “A2a selectivity” value in assay [2] worked out at 102.

As to `Nc1nc(C(=O)NCc2cccc3c2OCCN3)c2cccc(F)c2n1` [Example 84, 2-amino-N-(3,4-dihydro-2H-1,4-benzoxazin-8-ylmethyl)-8-fluoro-quinazoline-4-carboxamide], the Ki in assay [1] (setting [4]) was 5.3 nM. Besides, the “A2a selectivity” value in assay [2] is listed as 25.

In assay [1] (setting [4]), `COc1cccc2c(C(=O)N[C@H]3CCCc4cccnc43)nc(N)nc12` [Example 35, 2-amino-8-methoxy-N-[(8S)-5,6,7,8-tetrahydroquinolin-8-yl]quinazoline-4-carboxamide] had a Ki of 180 nM. Further, the “A2a selectivity” value in assay [2] was 48.

Compound `COc1cccc2c(C(=O)NCc3ncccc3F)nc(N)nc12` [Example 25, 2-amino-N-[(3-fluoro-2-pyridyl)methyl]-8-methoxy-quinazoline-4-carboxamide] came in with a Ki in assay [1] (setting [4]) of 1.4 nM. In assay [2], the “A2a selectivity” value is 221.

`COc1cccc2c(C(=O)NCc3nc(-c4ccccc4)c(C)o3)nc(N)nc12` [Example 31, 2-amino-8-methoxy-N-[(5-methyl-4-phenyl-oxazol-2-yl)methyl]quinazoline-4-carboxamide]: in assay [1] (setting [4]), the inhibitory constant (Ki) is 1.6 nM. For the same compound, the “A2a selectivity” value in assay [2] worked out at 105.

`Nc1nc(C(=O)NCc2cccc(Cc3ccc(F)c(F)c3)n2)c2cccc(F)c2n1` [Example 102, 2-amino-N-[[6-[(3,4-difluorophenyl)methyl]-2-pyridyl]methyl]-8-fluoro-quinazoline-4-carboxamide] showed a Ki in assay [1] (setting [4]) of 1.2 nM. Besides, in assay [2], the “A2a selectivity” value amounted to 33.

As for `Nc1nc(C(=O)NCc2cccc(COc3ccccn3)n2)c2cccc(F)c2n1` [Example 46, 2-amino-8-fluoro-N-[[6-(2-pyridyloxymethyl)-2-pyridyl]methyl]quinazoline-4-carboxamide], in assay [1] (setting [4]), the Ki was 2.2 nM. Also, the “A2a selectivity” value in assay [2] worked out at 484.

As to `COc1cccc2c(C(=O)NCc3cccc(CSc4nc5ccccc5[nH]4)n3)nc(N)nc12` [Example 56, 2-amino-N-[[6-(1H-benzimidazol-2-ylsulfanylmethyl)-2-pyridyl]methyl]-8-methoxy-quinazoline-4-carboxamide], the affinity in assay [1] (setting [4]) corresponds to a Ki of 6.3 nM. The “A2a selectivity” value in assay [2] amounted to 111.

As for `[2H]C([2H])(NC(=O)c1nc(N)nc2c(OC)cccc12)c1cccc(C([2H])([2H])c2cccc(OCCOC)c2)n1` [Example 106, 2-amino-N-[dideuterio-[6-[dideuterio-[3-(2-methoxyethoxy)phenyl]methyl]-2-pyridyl]methyl]-8-methoxy-quinazoline-4-carboxamide], in assay [1] (setting [3]), the Ki amounted to 1.9 nM. In addition, the “A2a selectivity” value in assay [2] amounted to 70.

In assay [1] (setting [4]), `COc1cccc2c(C(=O)NCc3cccc(CN4CCOCC4)c3)nc(N)nc12` [Example 53, 2-amino-8-methoxy-N-[[3-(morpholinomethyl)phenyl]methyl]quinazoline-4-carboxamide] registered a Ki of 7.1 nM. In assay [2], the “A2a selectivity” value turned out to be 63.

`COc1cccc2c(C(=O)NCc3cccc(C(C)C)n3)nc(N)nc12` [Example 5, 2-amino-N-[(6-isopropyl-2-pyridyl)methyl]-8-methoxy-quinazoline-4-carboxamide] gave a Ki in assay [1] (setting [4]) of 0.2 nM. Also, in assay [2], the “A2a selectivity” value was 146.

The compound `COc1cccc2c(C(=O)N[C@@H](CO)c3ccc4ccccc4n3)nc(N)nc12` [Example 37, 2-amino-N-[(1R)-2-hydroxy-1-(2-quinolyl)ethyl]-8-methoxy-quinazoline-4-carboxamide] had a Ki in assay [1] (setting [4]) of 8.3 nM. For the same compound, the “A2a selectivity” value in assay [2] was found to be 32.

Usually Ki stands for a measure of affinity in units of concentration, obtained from inhibition or displacement. A higher Ki goes with lower affinity.

(Values after US10138212B2, “Aminoquinazoline compounds as A2A antagonist” (Merck Sharp & Dohme Corp., priority 2015, dated 2018).)
